Test results taken from patent US20040023972A1, “Use of substituted imidazo[1,2-a]-pyridin-, -pyrimidin-and-pyrazin-3-yl-amine derivatives in the preparation of medicaments for inhibiting NOS” (Gruenenthal GmbH, priority 2000, published 2004).

biological target: T1, NO synthase (Rattus norvegicus, UniProt P29476); experiment: HTS-NOS assay (NOS assay): conversion of radioactive arginine, cation-exchanger filter plate; format: biochemical; conditions: 10 μM
T1 construct: the supernatant was then removed by decantation and frozen in portions at −80° C; from tissue; host or cells: rat cerebellum, 20,000 g supernatant of homogenate
Procedure, shortened: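 Percent inhibition was derived by comparing remaining radioactive arginine with compound-free controls. Arginine retained on phosphate cation-exchanger filters was counted after citrulline washout, following a 5-60 min room-temperature (25 °C) reaction of labelled arginine, NADPH-containing medium and rat cerebellar homogenate supernatant.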

Row | Molecule | HTS-NOS assay: % inhibition (10 μM) [%]
1 | Cc1cc(C)n2c(NC(C)(C)CC(C)(C)C)c(C)nc2c1 [Example 9, (1,1,3,3-Tetramethyl-butyl)-(2,5,7-trimethyl-imidazol[1,2-a]pyridin-3-yl)-amine] | 59
2 | Cc1cc(C)n2c(NC3CCCCC3)c(-c3ccccn3)nc2c1 [Example 114, Cyclohexyl-(5,7-dimethyt-2-pyridin-2-yl-imidazo[1,2-a]pyridin-3-yl)-amine] | 53
3 | [C-]#[N+]CCCCCCNc1c(-c2ccccc2Br)nc2cc(C)ccn12 [Example 137, {6-[2-(2-Bromo-phenyl)-7-methyl-imidazo[1,2-a]pyridin-3-ylamino]-hexyl}-methylidyne-ammonium] | 52
4 | [6-(acetyl-{7-methyl-2-[5-(2-nitro-phenyl)-furan-2-yl]-imidazo[1,2-a]pyridin-3-yl}-amino)-hexyl]-methylidyne-ammonium [Example 215] | 50
5 | C#[N+]CCCCCCNc1c(-c2ccc(OC)c(OC)c2)nc2cc(C)ccn12 [Example 109, {6-[2-(3,4-Dimethoxy-phenyl)-7-methyl-imidazo[1,2-a]pyridin-3-ylamino]-hexyl}-methylidyne-ammonium] | 51
6 | [C-]#[N+]CCCCCCNc1c(-c2ccc(-c3ccccc3Cl)o2)nc2cccc(C)n12 [Example 103, (6-{2-[5-(2-Chlorophenyl)-furan-2-yl]-5-methyl-imidazo[1,2-a]pyridin-3-ylamino)-hexyl)-methylidyne-ammonium] | 50
7 | [C-]#[N+]CCCCCCNc1c(-c2ccc(C)cc2)nc2cc(C)ccn12 [Example 50, Methylidyne-[6-(7-methyl-2-p-tolyl-imidazo[1,2-a]pyridin-3-ylamino)-hexyl]-ammonium] | 78

same assay, conditions: read-out: HTS-NOS assay: % inhibition (10 μM)

Row | Molecule | inhibition at 10 µM [%]
8 | Cc1cc(C)n2c(NC(C)(C)CC(C)(C)C)c(-c3ccco3)nc2c1 [Example 8, (2-Furan-2-yl-5,7-dimethyl-imidazo[1,2-a]-pyridin-3-yl)-(1,1,3,3-tetramethyl-butyl)-amine] | 52
9 | CCc1ccn2c(NCc3ccccc3OC)c(-c3ccc(C)o3)nc2c1 [Example 315, [7-Ethyl-2-(5-methyl-furan-2-yl)-imidazo[1,2-a]pyridin-3-yl]-(2-methoxy-benzyl)-amine] | 32
10 | COc1cccc(-c2nc3cc(C)cc(C)n3c2NC(C)(C)C)c1OC [Example 5, Tert-butyl-[2-(2,3-dimethoxy-phenyl)-5,7-dimethyl-imidazo[1,2-a]pyridin-3-yl]-amine] | 61
11 | CCCCN(C(C)=O)c1c(-c2ccccn2)nc2c(C(=O)O)cccn12 [Example 231, 3-(acetyl-butyl-amino)-2-pyridin-2-yl-imidazo[1,2-a]pyridine-8-carboxylic acid] | 52
12 | CC(=O)N(c1c(-c2ccc(C3OCCO3)o2)nc2cc(C)cc(C)n12)C(C)(C)CC(C)(C)C [Example 188, N-[2-(5-[1,3]dioxolan-2-yl-furan-2-yl)-5,7-dimethyl-imidazo[1,2-a]pyridin-3-yl]-N-(1,1,3,3-tetramethyl-butyl)-acetamide] | 50
13 | CCCCNc1c(-c2cccc(OC)c2OC)nc2cc(C)ccn12 [Example 74, Butyl-[2-(2,3-dimethoxy-phenyl)-7-methyl-imidazo[1,2-a]pyridin-3-yl]-amine] | 62
14 | Cc1cccn2c(NC3CCCCC3)c(-c3ccco3)nc12 [Example 121, Cyclohexyl-(2-furan-2-yl-8-methyl-imidazo[1,2-a]pyridin-3-yl)-amine] | 53
15 | Cc1ccn2c(NC3CCCCC3)c(C)nc2c1 [Example 69, Cyclohexyl-(2,7-dimethyl-imidazo[1,2-a]-pyridin-3-yl)-amine] | 55
16 | Cc1ccc(-c2nc3cc(C)cc(C)n3c2NC(C)(C)CC(C)(C)C)cc1 [Example 95, (5,7-Dimethyl-2-p-tolyl-imidazo[1,2-a]-pyridin-3-yl)-(1,1,3,3-tetramethyl-butyl)-amine] | 70
17 | CCc1ccn2c(NCc3ccccc3Cl)c(-c3ccc([N+](=O)[O-])o3)nc2c1 [Example 314, (2-Chlorobenzyl)-[7-ethyl-2-(5-nitro-furan-2-yl)-imidazo[1,2-a]pyridin-3-yl]-amine] | 47
18 | CCCCN(C(C)=O)c1c(-c2ccc(Cl)cc2Cl)nc2ncccn12 [Example 223, N-butyl-N-[2-(2,4-dichloro-phenyl)-imidazo[1,2-a]pyrimidin-3-yl]-acetamide] | 62
19 | CCCCN(C(C)=O)c1c(-c2cccc(OC)c2OC)nc2cc(C)cc(C)n12 [Example 171, N-butyl-N-[2-(2,3-dimethoxy-phenyl)-5,7-dimethyl-imidazo[1,2-a]pyridin-3-yl]-acetamide] | 63
20 | Cc1cc(C)n2c(Nc3c(C)cccc3C)c(-c3ccccc3C)nc2c1 [Example 32, (2,6-Dimethyl-phenyl)-(5,7-dimethyl-2-o-tolyl-imidazo[1,2-a]pyridin-3-yl)-amine] | 59
21 | CCCCN(C(C)=O)c1c(-c2cccc(OC)c2OC)nc2cc(C)ccn12 [Example 226, N-butyl-N-[2-(2,3-dimethoxy-phenyl)-7-methyl-imidazo[1,2-a]pyridin-3-yl]-acetamide] | 62
22 | CC(=O)N(c1c(-c2ccc(CO)o2)nc2cc(C)cc(C)n12)C(C)(C)CC(C)(C)C [Example 155, N-[2-(5-hydroxymethyl-furan-2-yl)-5,7-dimethyl-imidazo[1,2-a]pyridin-3-yl]-N-(1,1,3,3-tetramethyl-butyl)-acetamide] | 50
23 | CCCCNc1c(-c2ccccc2OC)nc2cc(C)ccn12 [Example 60, Butyl-[2-(2-methoxy-phenyl)-7-methyl-imidazo[1,2-a]pyridin-3-yl]-amine] | 52
24 | CC(=O)N(c1c(C)cccc1C)c1c(-c2ccccc2C)nc2cc(C)cc(C)n12 [Example 148, N-(2,6-dimethyl-phenyl)-N-(5,7-dimethyl-2-o-tolyl-imidazo[1,2-a]pyridin-3-yl)-acetamide] | 57

Row | Molecule | inhibition at 10 µM [%]
25 | Cc1cc(C)n2c(NC(C)(C)C)c(-c3ccc([N+](=O)[O-])o3)nc2c1 [Example 51, Tert-butyl-[5,7-dimethyl-2-(5-nitro-furan-2-yl)-imidazo[1,2-a]pyridin-3-yl]-amine] | 59
26 | CC(=O)N(c1c(-c2cccc(Oc3ccc(Cl)cc3)c2)nc2ccccn12)C1CCCCC1 [Example 269, N-{2-[3-(4-chloro-phenoxy)-phenyl]-imidazo[1,2-a]pyridin-3-yl}-N-cyclohexyl-acetamide] | 51
27 | Cc1ccn2c(NC3CCCCC3)c(-c3ccncc3)nc2c1 [Example 7, Cyclohexyl-(7-methyl-2-pyridin-4-yl-imidazo[1,2-a]pyridin-3-yl)-amine] | 65
28 | CCCCNc1c(C2CCCCC2)nc2cc(C)ccn12 [Example 30, Butyl-(2-cyclohexyl-7-methyl-imidazo[1,2-a]pyridin-3-yl)-amine] | 56
29 | Cc1ccc2nc(-c3ccc(Cl)cc3Cl)c(Nc3c(C)cccc3C)n2c1 [Example 134, [2-(2,4-Dichlorophenyl)-6-methyl-imidazo[1,2-a]pyridin-3-yl]-(2,6-dimethyl-phenyl)-amine] | 56
30 | Cc1ccn2c(NC(C)(C)C)c(-c3cccc4ccccc34)nc2c1 [Example 33, Tert-butyl-(7-methyl-2-naphthalen-1-yl-imidazo[1,2-a]pyridin-3-yl)-amine] | 67
31 | CC(=O)N(c1c(-c2ccc(C)cc2)nc2ccc(C)cn12)C(C)(C)CC(C)(C)C [Example 242, N-(6-methyl-2-p-tolyl-imidazo[1,2-a]pyridin-3-yl)-N-(1,1,3,3-tetramethyl-butyl)-acetamide] | 58
32 | Cc1cc(C)n2c(NC3CCCCC3)c(C3CCCCC3)nc2c1 [Example 77, Cyclohexyl-(2-cyclohexyl-5,7-dimethyl-imidazo[1,2-a]pyridin-3-yl)-amine] | 63
33 | CC(=O)N(c1c(-c2ccc(F)cc2Cl)nc2ccccn12)C(C)(C)C [Example 291, N-tert-butyl-N-[2-(2-chloro-4-fluoro-phenyl)-imidazo[1,2-a]pyridin-3-yl]-acetamide] | 53
34 | Cc1ccn2c(NC(C)(C)CC(C)(C)C)c(-c3cccnc3)nc2n1 [Example 126, (7-Methyl-2-pyridin-3-yl-imidazo[1,2-a]-pyrimidin-3-yl)-(1,1,3,3-tetramethyl-butyl)-amine] | 50
35 | Cc1ccn2c(NC(C)(C)C)c(-c3ccccn3)nc2c1 [Example 76, Tert-butyl-(7-methyl-2-pyridin-2-yl-imidazo[1,2-a]pyridin-3-yl)-amine] | 67
36 | CC(=O)N(c1c(-c2cccc(O)c2)nc2cc(C)cc(C)n12)C(C)(C)CC(C)(C)C [Example 181, N-[2-(3-hydroxy-phenyl)-5,7-dimethyl-imidazo[1,2-a]pyridin-3-yl]-N-(1,1,3,3-tetramethyl-butyl)-acetamide] | 60
37 | COC(=O)CNc1c(C2CCCCC2)nc2cc(C)cc(C)n12 [Example 142, (2-Cyclohexyl-5,7-dimethyl-imidazo[1,2-a]-pyridin-3-ylamino)-acetic acid methyl ester] | 59
38 | CC(=O)N(c1c(C)cccc1C)c1c(-c2cc3ccccc3o2)nc2cc(C)cc(C)n12 [Example 189, N-(2-benzofuran-2-yl-5,7-dimethyl-imidazo[1,2-a]pyridin-3-yl)-N-(2,6-dimethylphenyl)-acetamide] | 63
39 | Cc1ccc(-c2nc3cc(C)ccn3c2NC(C)(C)CC(C)(C)C)cc1 [Example 71, (7-Methyl-2-p-tolyl-imidazo[1,2-a]pyridin-3-yl)-(1,1,3,3-tetramethyl-butyl)-amine] | 58
40 | Cc1ccn2c(NC3CCCCC3)c(-c3cc(C)c(C)o3)nc2c1 [Example 105, Cyclohexyl-[2-(4,5-dimethyl-furan-2-yl)-7-methyl-imidazo[1,2-a]pyridin-3-yl]-amine] | 65
